# From patent publication US20140213576A1, “NOVEL COMPOUND USEFUL FOR THE TREATMENT OF DEGENERATIVE AND INFLAMMATORY DISEASES” (GALAPAGOS NV, priority 2013, published 2014)
# Legend:
# JAK1 = target: T1, JAK1 (Homo sapiens, UniProt P23458); test: JAK1 Ki determination assay; type: biochemical; settings: Lineweaver-Burk, varying ATP, Ulight-JAK-1 peptide; read-out: Ki against JAK1
# T1 construct: Recombinant human JAK1 (catalytic domain, amino acids 866-1154; catalog number PV4774); purchased Invitrogen PV4774
# Procedure: For the determination of Ki, different amounts of compound were mixed with the enzyme and the enzymatic reaction was followed as a function of ATP concentration. The Ki was determined by means of double reciprocal plotting of Km vs compound concentration (Lineweaver-Burk plot). 1 ng of JAK1 (Invitrogen, PV4774) is used in the assay. The substrate was 50 nM Ulight-JAK-1 (Tyr1023) Peptide (Perkin Elmer, TRF0121) The reaction is performed in 25 mM MOPS pH 6.8, 0.01%, 2 mM DTT, 5 mM MgCl2 Brij-35 with varying concentrations of ATP and compound. Phosphorylated substrate was measured using an Eu-labeled anti-phosphotyrosine antibody PT66 (Perkin Elmer, AD0068) as described in 1.1.2. Readout was performed on the envision (Perkin Elmer) with excitation at 320 nm and emission followed at 615 nm and 665 nm.
# [1] = system: Collagen Induced Arthritis (CIA); test: Rat CIA model; type: in vivo; settings: p.o., therapeutic dosing day 16 to day 30
# Procedure: Completed Freund's adjuvant (CFA) and incomplete Freund's adjuvant (IFA) were purchased from Difco. Bovine collagen type II (CII), lipopolysaccharide (LPS), and Enbrel was obtained from Chondrex (Isle d'Abeau, France); Sigma (P4252, L'Isle d'Abeau, France), […] (25 mg injectable syringe, France) Acros Organics (Palo Alto, Calif.), respectively. All other reagents used were of reagent grade and all solvents were of analytical grade. Dark Agouti rats (male, 7-8 weeks old) were obtained from Harlan Laboratories (Maison-Alfort, France). Rats were kept on a 12 h light/dark cycle (0700-1900). Temperature was maintained at 22° C., and food and water were provided ad libitum. […] A compound of interest was typically tested at 5 doses, e.g. 1, 2, 3, 5, and 10 mg/kg, p.o. Arthritis is scored according to the method of Khachigian 2006, Lin et al 2007 and Nishida et al. 2004). […] To permit the meta-analysis of multiple studies the clinical score values were normalised as follows: AUC of clinical score (AUC score): The area under the curve (AUC) from day 1 to day 14 was calculated for each individual rat. The AUC of each animal was divided by the average AUC obtained for the vehicle in the study from which the data on that animal was obtained and multiplied by 100 (i.e. the AUC was expressed as a percentage of the average vehicle AUC per study). […]
# TYK2 = target: T2, TYK2 (Homo sapiens, UniProt P29597); test: TYK2 Ki determination assay (kinase tracer 236 binding); settings: binding experiment, 50 nM kinase tracer 236; read-out: Ki against TYK2
# T2 construct: purchased Carna Biosciences 09CBS-0983D
# Procedure: TYK2 (Carna Biosciences, 09CBS-0983D) was used at a final concentration of 5 nM. The binding experiment was performed in 50 mM Hepes pH 7.5, 0.01% Brij-35, 10 mM MgCl2, 1 mM EGTA using 50 nM kinase tracer 236 (Invitrogen, PV5592) and 2 nM Eu-anti-GST (Invitrogen, PV5594) with varying compound concentrations. Detection of tracer was performed according to the manufacturers’ procedure.
# T1 sequence (P23458 866-1154): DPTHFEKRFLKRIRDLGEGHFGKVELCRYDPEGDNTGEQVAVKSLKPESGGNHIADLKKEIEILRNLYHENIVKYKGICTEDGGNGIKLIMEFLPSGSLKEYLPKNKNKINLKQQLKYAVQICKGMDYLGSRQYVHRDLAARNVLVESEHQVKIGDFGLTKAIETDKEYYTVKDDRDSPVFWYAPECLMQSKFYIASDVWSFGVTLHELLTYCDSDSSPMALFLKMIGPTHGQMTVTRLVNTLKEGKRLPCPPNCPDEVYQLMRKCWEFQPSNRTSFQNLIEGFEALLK
# T2 sequence (P29597 whole entry): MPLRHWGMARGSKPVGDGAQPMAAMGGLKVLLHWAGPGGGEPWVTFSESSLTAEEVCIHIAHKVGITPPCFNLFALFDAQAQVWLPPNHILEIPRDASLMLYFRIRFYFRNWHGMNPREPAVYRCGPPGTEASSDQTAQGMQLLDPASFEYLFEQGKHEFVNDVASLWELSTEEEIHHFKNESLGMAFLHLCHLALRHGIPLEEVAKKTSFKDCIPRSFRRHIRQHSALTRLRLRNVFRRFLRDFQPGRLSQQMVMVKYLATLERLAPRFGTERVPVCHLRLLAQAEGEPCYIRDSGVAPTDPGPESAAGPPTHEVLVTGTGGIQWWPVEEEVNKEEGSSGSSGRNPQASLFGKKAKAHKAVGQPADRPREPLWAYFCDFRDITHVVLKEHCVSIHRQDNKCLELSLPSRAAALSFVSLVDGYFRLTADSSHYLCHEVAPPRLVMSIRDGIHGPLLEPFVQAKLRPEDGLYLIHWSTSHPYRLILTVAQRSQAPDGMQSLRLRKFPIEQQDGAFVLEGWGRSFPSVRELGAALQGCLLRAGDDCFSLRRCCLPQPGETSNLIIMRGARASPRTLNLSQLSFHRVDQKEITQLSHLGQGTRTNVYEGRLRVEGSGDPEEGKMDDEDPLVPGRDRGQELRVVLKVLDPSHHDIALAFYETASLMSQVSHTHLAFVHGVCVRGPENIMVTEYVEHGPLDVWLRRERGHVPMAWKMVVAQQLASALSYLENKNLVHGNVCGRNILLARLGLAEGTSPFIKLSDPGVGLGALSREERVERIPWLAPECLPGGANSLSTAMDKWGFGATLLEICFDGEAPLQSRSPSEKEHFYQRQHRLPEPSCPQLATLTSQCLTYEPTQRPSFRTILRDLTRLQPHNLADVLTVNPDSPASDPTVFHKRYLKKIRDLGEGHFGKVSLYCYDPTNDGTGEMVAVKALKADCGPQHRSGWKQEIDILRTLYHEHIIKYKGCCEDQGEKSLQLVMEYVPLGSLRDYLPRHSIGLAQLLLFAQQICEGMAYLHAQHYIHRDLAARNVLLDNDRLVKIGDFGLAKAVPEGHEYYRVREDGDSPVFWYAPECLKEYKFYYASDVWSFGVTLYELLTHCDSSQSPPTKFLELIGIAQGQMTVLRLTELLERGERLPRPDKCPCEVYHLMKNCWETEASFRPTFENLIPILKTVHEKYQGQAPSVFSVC
compound,measurement,setting,value
"CCc1cc(C2CN(S(C)(=O)=O)C2)ncc1N(C)c1cc2c(cn1)ncn2C [Compound 1, [4-Ethyl-6-(1-methanesulfonyl-azetidin-3-yl)-pyridin-3-yl]-methyl-(1-methyl-1H-imidazo[4,5-d]pyridin-6-yl)-amine]",Ki,JAK1,9.21 nM
same,dose from which statistically significant efficacy was displayed,[1],≥ 3 mg/kg
same,Ki,TYK2,336 nM
